One compound from ChEMBL document CHEMBL4002566, “S-substituted 3,5-dinitrophenyl 1,3,4-oxadiazole-2-thiols and tetrazole-5-thiols as highly efficient antitubercular agents” (Eur J Med Chem, 2017) can be followed below.

What all share (format): functional
Assay [1] has as its system Mycobacterium tuberculosis. Nature of the assay: Antimycobacterial activity against multidrug-resistant Mycobacterium tuberculosis Praha 4 after 14 days by micromethod. The settings on record: Praha 4, 336 h.
The test system of assay [2] is Mycobacterium tuberculosis. Nature of the assay: Antimycobacterial activity against multidrug-resistant Mycobacterium tuberculosis Praha 4 after 21 days by micromethod. The settings on record: Praha 4, 504 h.
In assay [3] the test system is Mycobacterium tuberculosis. Nature of the assay: Antimycobacterial activity against multidrug-resistant Mycobacterium tuberculosis 7357/1998 after 14 days by micromethod. The settings on record: 7357/1998, 336 h.
Assay [4] concerns Mycobacterium tuberculosis. Nature of the assay: Antimycobacterial activity against multidrug-resistant Mycobacterium tuberculosis 9449/2007 after 21 days by micromethod. The settings on record: 9449/2007, 504 h.
Assay [5] concerns Mycobacterium tuberculosis. Nature of the assay: Antimycobacterial activity against multidrug-resistant Mycobacterium tuberculosis 8666/2010 after 21 days by micromethod. The settings on record: 8666/2010, 504 h.
For assay [6], the system named is Mycobacterium tuberculosis. Nature of the assay: Antimycobacterial activity against multidrug-resistant Mycobacterium tuberculosis 234/2005 after 21 days by micromethod. The settings on record: 234/2005, 504 h.
The test system of assay [7] is Mycobacterium tuberculosis. Nature of the assay: Antimycobacterial activity against multidrug-resistant Mycobacterium tuberculosis 7357/1998 after 21 days by micromethod. The settings on record: 7357/1998, 504 h.
The subject of assay [8] is Mycobacterium tuberculosis. Nature of the assay: Antimycobacterial activity against multidrug-resistant Mycobacterium tuberculosis Praha 1 after 14 days by micromethod. The settings on record: Praha 1, 336 h.
Assay [9] has as its system Mycobacterium tuberculosis. Nature of the assay: Antimycobacterial activity against multidrug-resistant Mycobacterium tuberculosis Praha 131 after 21 days by micromethod. The settings on record: Praha 131, 504 h.
Assay [10] has as its system Mycobacterium tuberculosis. Nature of the assay: Antimycobacterial activity against multidrug-resistant Mycobacterium tuberculosis Praha 131 after 14 days by micromethod. The settings on record: Praha 131, 336 h.
Assay [11] deals with Mycobacterium tuberculosis. Nature of the assay: Antimycobacterial activity against multidrug-resistant Mycobacterium tuberculosis 234/2005 after 14 days by micromethod. The settings on record: 234/2005, 336 h.
Assay [12] relates to Mycobacterium tuberculosis. Nature of the assay: Antimycobacterial activity against multidrug-resistant Mycobacterium tuberculosis 9449/2007 after 14 days by micromethod. The settings on record: 9449/2007, 336 h.
Assay [13] concerns Mycobacterium tuberculosis. Nature of the assay: Antimycobacterial activity against multidrug-resistant Mycobacterium tuberculosis 8666/2010 after 14 days by micromethod. The settings on record: 8666/2010, 336 h.
The test system of assay [14] is Mycobacterium tuberculosis. Nature of the assay: Antimycobacterial activity against multidrug-resistant Mycobacterium tuberculosis Praha 1 after 21 days by micromethod. The settings on record: Praha 1, 504 h.

In general, MIC refers to the lowest concentration that inhibits growth of the organism.

Converted amounts (≈) assume the structure as drawn.

With `O=[N+]([O-])c1cc(-c2nnc(SCc3ccc(Br)cc3)o2)cc([N+](=O)[O-])c1`, the minimal inhibitory concentration (MIC) in assay [1] turned out to be 0.03 µM (≈ 0.0131 µg/mL); in assay [2], 0.06 µM (≈ 0.0262 µg/mL); in assay [3], 0.03 µM (≈ 0.0131 µg/mL); in [4] it was 0.06 µM (≈ 0.0262 µg/mL); in assay [5] it was 0.06 µM (≈ 0.0262 µg/mL); in [6], 0.06 µM (≈ 0.0262 µg/mL). The MIC in [7] was determined as 0.06 µM (≈ 0.0262 µg/mL); in [8], 0.03 µM (≈ 0.0131 µg/mL); in assay [9], 0.06 µM (≈ 0.0262 µg/mL); in assay [10], 0.03 µM (≈ 0.0131 µg/mL); in assay [11] it was 0.03 µM (≈ 0.0131 µg/mL); in assay [12] it was 0.03 µM (≈ 0.0131 µg/mL). In addition, the MIC in assay [13] was 0.03 µM (≈ 0.0131 µg/mL); in [14], 0.06 µM (≈ 0.0262 µg/mL).
